# Assays:
# [1] = test system: castrated male rat (ORX): levator ani muscle and prostate; test: Castrated male rat model (ORX rat); type: in vivo; settings: for prostate sparing: defined as at least a 2:1 ratio of levator ani ED50 to prostate ED50; for levator ani hypertrophy: favorable = 30% or greater increase in levator ani weight vs vehicle-treated castrates, dosed orally at up to 10 mg/kg/day
# Description: Castrated Male Rat Model (ORX Rat)
# The activity of the compounds of the present invention as modulators of the androgen receptor was investigated using a castrated male rat model (ORX) as described in C. D. Kockakian, Pharmac. Therap. B 1(2), 149-177 (1975); C. Tobin and Y. Joubert, Developmental Biology 146, 131-138 (1991); J. Antonio, J. D. Wilson and F. W. George, J Appl. Physiol. 87(6) 2016-2019 (1999)) the disclosures of which herein are included by reference.
# Androgens have been identified as playing important roles in the maintenance and growth of many tissues in both animals and humans. Muscles, like the levator ani and bulbocavernosus, and sexual accessory organs, such as the prostate glands and seminal vesicles have high expression levels of the androgen receptor and are known to respond quickly to exogenous androgen addition or androgen deprivation through testicular ablation. Castration produces dramatic atrophy of muscle and sexual accessory organs; whereas the administration of exogenous androgens to the castrated animal results in effective hypertrophy of these muscles and sexual accessory organs. Although the levator ani muscle, also known as the dorsal bulbocavernosus, is not ‘true skeletal muscle’ and definitely sex-linked, it is reasonable to use this muscle to screen muscle anabolic activities of test compounds because of its androgen responsiveness and simplicity of removal.
# Male Sprague-Dawley rats weighing 160-180 grams were used in the assay. The rats were singly caged upon receiving and throughout the study. Bilateral orchidectomies were performed in sterilized surgical conditions under isoflurane anesthesia. An anteroposterior incision was made in the scrotum. The testicles were exteriorized and the spermatic artery and vas deferens were ligated with 4.0 silk 0.5 cm proximal to the ligation site. The testicles then were removed by a surgical scissors distal to the ligation sites. The tissue stumps were returned to the scrotum, the scrotum and overlying skin were closed by a surgical stapler. The Sham-ORX rats underwent all procedures except ligation and scissors cutting. The rats were assigned randomly into study groups 7-10 days post surgery based on the body weight.
# Dihydrotestosterone (DHT) and the standard SARM, S-22, (J. Pharma. Exper. Thera. Vol 315, p. 230) were used as a positive control (1-10 mg/kg s.c. for DHT and 0.1 to 3 mg/kg p.o. for S-22). Compounds of the current invention were administered subcutaneously or orally for 4-28 days. Alternatively, some compounds of the current invention were administered subcutaneously or orally for 7-49 days. The rats were weighed daily and doses were adjusted accordingly. The general well being of the animal was monitored throughout the course of the study.
# At the end of the study, the rats were euthanized in a CO2 chamber. The ventral prostate glands (VP), seminal vesicles (SV), levator ani muscle (LA) and bulbocavernosus (BC) were carefully dissected. The tissues were blotted dry; the weights were recorded, and then saved for histological and molecular analysis. The VP and SV weights serve as androgenic indicators and LA and BC as anabolic indicators. The ratio of anabolic to androgenic activities was used to evaluate the test compounds. Serum luteinizing hormone (LH), follicle stimulating hormone (FSH) and other potential serum markers of anabolic activities were also analyzed.
# In general, preferred compounds show levator ani hypertrophy and very little prostate stimulation.
# The compounds shown in Examples 9, 20, 26, 27, 33, 51, 52, and 53 were tested in the castrated male rate model essentially as described above. Test compounds were employed in free or salt form. […] Prostate sparing was defined as at least a 2:1 ratio of levator ani ED50 to prostate ED50. The ED50 is defined as 50% of the maximum response above the vehicle treated castrate level. […]
# [2] = molecular target: androgen receptor (MBP-hAR-LBD, rat androgen ligand binding domain) (Rattus norvegicus (Rat), UniProt P15207); test: Androgen receptor fluorescence polarization assay; settings: maximum of curve fit; max/min compared to absence of compound and 10^-5 M control compound
# Method: The androgen receptor fluorescence polarization assay is used to investigate the interaction of the compounds with the androgen receptor.
# Compounds are added to the 384 well black low-volume plates to a final volume of 0.1 μL. DTT and DMSO are added to the chilled assay buffer just before beginning assay. Sufficient Fluormone AL Red and AR-LBD are defrosted on ice and added to the chilled buffer in a glass tube to give a final concentration of 1 nM and 100 nM, (for current batch) respectively. A volume of 10 μL of the assay mix is added to compound plates with a multidrop. […] The plates are counted in a Discovery Analyst with suitable 535 nm excitation and 590 nm emission interference filters (Dichroic 561 nM). […] Test compounds are dissolved and diluted in DMSO. Compounds are assayed in singlicate, a four parameter curve fit of the following form being applied
# [formula] where a is the minimum, b is the Hill slope, c is the IC50 and d is the maximum.
# Data is presented as the mean pIC50 with the standard error of the mean of n experiments.
# Chain of androgen receptor (MBP-hAR-LBD, rat androgen ligand binding domain) (P15207 651-882): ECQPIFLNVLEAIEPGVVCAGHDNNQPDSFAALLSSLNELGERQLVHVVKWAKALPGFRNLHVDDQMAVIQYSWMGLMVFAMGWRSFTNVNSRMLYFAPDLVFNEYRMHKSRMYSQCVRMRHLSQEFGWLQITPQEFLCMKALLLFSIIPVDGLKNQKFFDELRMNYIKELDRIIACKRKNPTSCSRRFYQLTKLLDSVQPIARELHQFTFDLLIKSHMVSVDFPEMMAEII
smiles,measurement,setting,value
"Cc1cc2c(C(F)(F)F)c(C#N)ccc2n1C(C)CS(C)(=O)=O (stereo not shown) [Example 9, 2-Methyl-1-(1-(methylsulfonyl)propan-2-yl)-4-(trifluoromethyl)-1H-indole-5-carbonitrile]",prostate sparing,[1],spared the prostate
same,levator ani hypertrophy,[1],favorable levator ani hypertrophy
"C[C@H](n1ccc2c(C(F)(F)F)c(C#N)ccc21)C(C)(C)O [Example 21, (S)-1-(3-Hydroxy-3-methylbutan-2-yl)-4-(trifluoromethyl)-1H-indole-5-carbonitrile]",% Max,[2],100%
"CC(CS(C)(=O)=O)n1ccc2c(C(F)(F)F)c(C#N)ccc21 (stereo not shown) [Example 26, 1-(1-(Methylsulfonyl)propan-2-yl)-4-(trifluoromethyl)-1H-indole-5-carbonitrile]",prostate sparing,[1],spared the prostate
same,levator ani hypertrophy,[1],favorable levator ani hypertrophy
"C[C@H](CS(C)(=O)=O)n1ccc2c(C(F)(F)F)c(C#N)ccc21 [Example 27, (R)-1-(1-(Methylsulfonyl)propan-2-yl)-4-(trifluoromethyl)-1H-indole-5-carbonitrile]",prostate sparing,[1],spared the prostate
same,levator ani hypertrophy,[1],favorable levator ani hypertrophy
"CC[C@H](c1cncc(C#N)c1)n1ccc2c(C#N)c(C#N)ccc21 [Example 51, (R)-1-(1-(5-Cyanopyridin-3-yl)propyl)-1H-indole-4,5-dicarbonitrile]",prostate sparing,[1],spared the prostate
same,levator ani hypertrophy,[1],favorable levator ani hypertrophy
"C[C@@H](n1ccc2c(Cl)c(C#N)ccc21)[C@](C)(O)C(F)(F)F [Example 52, 4-Chloro-1-((2R,3S)-4,4,4-trifluoro-3-hydroxy-3-methylbutan-2-yl)-1H-indole-5-carbonitrile]",prostate sparing,[1],spared the prostate
same,levator ani hypertrophy,[1],favorable levator ani hypertrophy
"C[C@@H](n1ccc2c(C(F)(F)F)c(C#N)ccc21)[C@](C)(O)C(F)(F)F [Example 53, 1-((2R,3S)-4,4,4-Trifluoro-3-hydroxy-3-methylbutan-2-yl)-4-(trifluoromethyl)-1H-indole-5-carbonitrile]",prostate sparing,[1],spared the prostate
same,levator ani hypertrophy,[1],favorable levator ani hypertrophy

# Source: patent US11299457B2, “Chemical compounds” (GlaxoSmithKline Intellectual Property (No. 2) Limited, priority 2012, dated 2022)
